Species on record: Homo sapiens
Assay: Selectivity ratio of IC50 for human recombinant ERalpha to IC50 for human recombinant ERbeta

Point of comparison: `CC1(C)C=Cc2c(cc3occ(-c4ccc(O)cc4)c(=O)c3c2O)O1`, Ratio IC50 0.7. Against it:
- COc1ccc2c(c1CC=C(C)C)O[C@H]1c3ccc(O)cc3OC[C@@]21O — higher, 2.2
- COc1cc(O)c2c(=O)c(-c3ccc(O)c(CC(O)=C(C)C)c3)coc2c1 — higher, 2.3
- COc1cc(O)c2c(=O)c(-c3cc(CC=C(C)C)c(O)cc3O)coc2c1 — the same, 0.7
- COc1cc(O)c2c(=O)c(-c3cc4c(cc3O)OC(C)(C)C(O)C4)coc2c1 (stereo not drawn) — higher, 16
- CC(C)=CCc1cc(-c2coc3cc(O)cc(O)c3c2=O)ccc1O — lower, 0.6
- CC(C)=CCc1c(O)cc2occ(-c3ccc(O)cc3)c(=O)c2c1O — lower, 0.6
- CCCc1c(-c2ccc(O)cc2)nn(-c2ccc(O)cc2)c1-c1ccc(O)cc1 — higher, 36
